Test results published in US20070117743A1, “New antitumoral compounds” (priority 2003, published 2007).
Read-outs that look alike come from different tables or passages of the source. Where a SMILES comes first, the peptide text is derived from it. Bridges are numbered along the chain shown (N, C = ends). [ ]: non-standard residue; d: D form. The star is where a group is joined. d(aIle) = CC[C@H](C)[C@@H](N)C(=O)O; d(aThr) = C[C@@H](O)[C@@H](N)C(=O)O; Hexanoyl(5-Me) = CC(C)CCCC(=O)*; Orn = NCCC[C@H](N)C(=O)O; Dhb = C/C=C(\N)C(=O)O

How the values were obtained:
Format in all cases: cell-based, human
IGROV-1 = assay: SRB colorimetric assay of cell growth and viability, IGROV-1; conditions: 48 hours exposure
HeLa = assay: SRB colorimetric assay of cell growth and viability, HeLa; conditions: 48 hours exposure; for CC50: read-out: LC50 HELA
HeLa-APL = assay: SRB colorimetric assay of cell growth and viability, HeLa-APL; conditions: 48 hours exposure; for CC50: read-out: LC50 HELA-APL
HT-29 = assay: SRB colorimetric assay of cell growth and viability, HT-29; conditions: 48 hours exposure; for GI50: read-out: GI50 HT-29; for CC50: read-out: LC50 HT-29
K-562 = assay: SRB colorimetric assay of cell growth and viability, K-562; conditions: 48 hours exposure; for CC50: read-out: LC50 K-562
A-549 = assay: SRB colorimetric assay of cell growth and viability, A-549; conditions: 48 hours exposure; for GI50: read-out: GI50 A-549; for CC50: read-out: LC50 A-549
LoVo = assay: SRB colorimetric assay of cell growth and viability, LoVo; conditions: 48 hours exposure; for CC50: read-out: LC50 LOVO
DU-145 = assay: SRB colorimetric assay of cell growth and viability, DU-145; conditions: 48 hours exposure
LNCaP = assay: SRB colorimetric assay of cell growth and viability, LNCaP; conditions: 48 hours exposure; for CC50: read-out: LC50 LN-caP
SK-BR-3 = assay: SRB colorimetric assay of cell growth and viability, SK-BR-3; conditions: 48 hours exposure
PANC-1 = assay: SRB colorimetric assay of cell growth and viability, PANC-1; conditions: 48 hours exposure; for CC50: read-out: LC50 PANC-1
IGROV-ET = assay: SRB colorimetric assay of cell growth and viability, IGROV-ET; conditions: 48 hours exposure; for CC50: read-out: LC50 IGROV-ET
SK-MEL-28 = assay: SRB colorimetric assay of cell growth and viability, SK-MEL-28; conditions: 48 hours exposure; for CC50: read-out: LC50 MEL-28
LoVo-Dox = assay: SRB colorimetric assay of cell growth and viability, LoVo-Dox; conditions: LOVO-DOX, 48 hours exposure
Method in brief: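 48 h continuous exposure, 10 to 10^−8 μg/mL; 5×10^3 cells/well, 18 h attachment; TCA fix, 0.4% SRB, OD 490 nm. Triplicates; GI, TGI, LC derived.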

## C/C=C1\NC(=O)[C@H](Cc2ccccc2)NC(=O)[C@@H](C(C)C)NC(=O)[C@@H]([C@@H](C)CC)NC(=O)[C@H](NC(=O)[C@H](NC(=O)[C@H](CCCN)NC(=O)[C@H]2CCCN2C(=O)[C@H](NC(=O)[C@H](NC(=O)[C@@H](NC(=O)[C@H](NC(=O)CCCC(C)C)C(C)C)[C@@H](C)O)C(C)C)C(C)C)[C@@H](C)CC)[C@@H](C)OC(=O)[C@H](C(C)C)NC1=O [Compound 46, [D-Val^11]-KF]
IGROV-1
  GI50: 1.5 µM
  LC50 (concentration causing 50% net cell killing): ≥ 6.77 µM
  TGI IGROV: 3.55E−06 Molar
HeLa
  GI50: 4.61 µM
  TGI HELA: 6.77E−06 Molar
  CC50: ≥ 6.77 µM
HeLa-APL
  GI50: 3.3 µM
  TGI HELA-APL: 6.77E−06 Molar
  CC50: ≥ 6.77 µM
HT-29
  TGI HT-29: 6.77E−06 Molar
  GI50: 2.5 µM
  CC50: ≥ 6.77 µM
K-562
  GI50: 3.04 µM
  TGI K-562: 6.77E−06 Molar
  CC50: ≥ 6.77 µM
A-549
  TGI A-549: 6.77E−06 Molar
  GI50: 3.67 µM
  CC50: ≥ 6.77 µM
LoVo
  GI50: 1.2 µM
  TGI LOVO: 2.30E−06 Molar
  CC50: 4.4 µM
DU-145
  GI50: 2.43 µM
  LC50 (concentration causing 50% net cell kill): ≥ 6.77 µM
  TGI DU-145: 6.77E−06 Molar
LNCaP
  TGI LN-caP: 6.77E−06 Molar
  CC50: ≥ 6.77 µM
LNCaP; read-out: GI50 LN-caP
  GI50: 2.42 µM
SK-BR-3
  GI50: 1.35 µM
  LC50: 5.62 µM
  TGI SK-BR-3: 2.75E−06 Molar
PANC-1
  GI50: 3.12 µM
  TGI PANC-1: 6.77E−06 Molar
  CC50: ≥ 6.77 µM
IGROV-ET
  GI50: 1.67 µM
  TGI IGROV-ET: 3.62E−06 Molar
  CC50: ≥ 6.77 µM
SK-MEL-28
  GI50: ≥ 6.77 µM
  TGI MEL-28: 6.77E−06 Molar
  CC50: ≥ 6.77 µM

## C/C=C1\NC(=O)[C@H](Cc2ccccc2)NC(=O)[C@@H](C(C)C)NC(=O)[C@@H]([C@@H](C)CC)NC(=O)[C@H](NC(=O)[C@H](NC(=O)[C@H](CCCN)NC(=O)[C@H]2CCCN2C(=O)[C@H](NC(=O)[C@@H]2CCCN2C(=O)[C@@H](NC(=O)[C@H](NC(=O)CCCC(C)C)C(C)C)[C@@H](C)O)C(C)C)[C@@H](C)CC)[C@@H](C)OC(=O)[C@H](C(C)C)NC1=O [Compound 47, [Pro^11]-KF] ({Hexanoyl(5-Me)}-[dV]TP[dV][dP][Orn][d(aIle)][d(aThr)][d(aIle)][dV]F[Dhb]V; ester 8-C)
IGROV-1
  GI50: 6.78 µM
  LC50 (concentration causing 50% net cell killing): 6.78 µM
  TGI IGROV: 6.78E−06 Molar
HeLa
  GI50: 6.78 µM
  TGI HELA: 6.78E−06 Molar
  CC50: 6.78 µM
HeLa-APL
  GI50: 6.78 µM
  TGI HELA-APL: 6.78E−06 Molar
  CC50: 6.78 µM
HT-29
  TGI HT-29: 6.78E−06 Molar
  GI50: 6.78 µM
  CC50: 6.78 µM
K-562
  GI50: 6.78 µM
  TGI K-562: 6.78E−06 Molar
  CC50: 6.78 µM
A-549
  TGI A-549: 6.78E−06 Molar
  GI50: 6.78 µM
  CC50: 6.78 µM
LoVo
  GI50: 5.85 µM
  TGI LOVO: 6.78E−06 Molar
  CC50: 6.78 µM
DU-145
  GI50: 6.78 µM
  LC50 (concentration causing 50% net cell kill): 6.78 µM
  TGI DU-145: 6.78E−06 Molar
LNCaP
  TGI LN-caP: 6.78E−06 Molar
  CC50: 6.78 µM
LNCaP; read-out: GI50 LN-caP
  GI50: 3.45 µM
SK-BR-3
  GI50: 6.78 µM
  LC50: 6.78 µM
  TGI SK-BR-3: 6.78E−06 Molar
PANC-1
  GI50: 5.63 µM
  TGI PANC-1: 6.78E−06 Molar
  CC50: 6.78 µM
IGROV-ET
  GI50: 6.78 µM
  TGI IGROV-ET: 6.78E−06 Molar
  CC50: 6.78 µM
SK-MEL-28
  GI50: 6.78 µM
  TGI MEL-28: 6.78E−06 Molar
  CC50: 6.78 µM

## C/C=C1\NC(=O)[C@H](Cc2ccccc2)NC(=O)[C@@H](C(C)C)NC(=O)[C@@H]([C@@H](C)CC)NC(=O)[C@H](NC(=O)[C@H](NC(=O)[C@H](CCCN)NC(=O)[C@H]2CCCN2C(=O)[C@H](NC(=O)[C@H](CCC(N)=O)NC(=O)[C@@H](NC(=O)[C@H](NC(=O)CCCC(C)C)C(C)C)[C@@H](C)O)C(C)C)[C@@H](C)CC)[C@@H](C)OC(=O)[C@H](C(C)C)NC1=O [Compound 48, [Gln^11]-KF] ({Hexanoyl(5-Me)}-[dV]TQ[dV][dP][Orn][d(aIle)][d(aThr)][d(aIle)][dV]F[Dhb]V; ester 8-C)
IGROV-1
  GI50: 6.64 µM
  LC50 (concentration causing 50% net cell killing): 6.64 µM
  TGI IGROV: 6.64E−06 Molar
HeLa
  GI50: 6.64 µM
  TGI HELA: 6.64E−06 Molar
  CC50: 6.64 µM
HeLa-APL
  GI50: 6.64 µM
  TGI HELA-APL: 6.64E−06 Molar
  CC50: 6.64 µM
HT-29
  TGI HT-29: 6.64E−06 Molar
  GI50: 6.64 µM
  CC50: 6.64 µM
K-562
  GI50: 6.64 µM
  TGI K-562: 6.64E−06 Molar
  CC50: 6.64 µM
A-549
  TGI A-549: 6.64E−06 Molar
  GI50: 5.82 µM
  CC50: 6.64 µM
LoVo
  GI50: 5.17 µM
  TGI LOVO: 6.64E−06 Molar
  CC50: 6.64 µM
DU-145
  GI50: 6.64 µM
  LC50 (concentration causing 50% net cell kill): 6.64 µM
  TGI DU-145: 6.64E−06 Molar
LNCaP
  TGI LN-caP: 6.64E−06 Molar
  CC50: 6.64 µM
LNCaP; read-out: GI50 LN-caP
  GI50: 3.1 µM
SK-BR-3
  GI50: 6.64 µM
  LC50: 6.64 µM
  TGI SK-BR-3: 6.64E−06 Molar
PANC-1
  GI50: 5.1 µM
  TGI PANC-1: 6.64E−06 Molar
  CC50: 6.64 µM
IGROV-ET
  GI50: 6.64 µM
  TGI IGROV-ET: 6.64E−06 Molar
  CC50: 6.64 µM
SK-MEL-28
  GI50: 6.64 µM
  TGI MEL-28: 6.64E−06 Molar
  CC50: 6.64 µM

## C/C=C1\NC(=O)[C@H](Cc2ccccc2)NC(=O)[C@@H](C(C)C)NC(=O)[C@@H]([C@@H](C)CC)NC(=O)[C@H](NC(=O)[C@H](NC(=O)[C@H](CCCN)NC(=O)[C@H]2CCCN2C(=O)[C@H](NC(=O)[C@@H](NC(=O)CNC(=O)[C@H](NC(=O)CCCC(C)C)C(C)C)C(C)C)C(C)C)[C@@H](C)CC)[C@@H](C)OC(=O)[C@H](C(C)C)NC1=O [Compound 111, [Gly^12]-KF] ({Hexanoyl(5-Me)}-[dV]GV[dV][dP][Orn][d(aIle)][d(aThr)][d(aIle)][dV]F[Dhb]V; ester 8-C)
IGROV-1; IGROV
  GI50: 0.167 µM
  LC50 (concentration causing 50% net cell killing): 1.33 µM
  TGI IGROV: 3.72E−07 Molar
HeLa; HELA
  GI50: 1.26 µM
  TGI HELA: 2.94E−06 Molar
  CC50: 6.86 µM
HeLa-APL; HELA-APL
  GI50: 0.355 µM
  TGI HELA-APL: 1.21E−06 Molar
  CC50: 3.51 µM
HT-29; HT-29
  TGI HT-29: 2.59E−06 Molar
  GI50: 0.511 µM
  CC50: 6.97 µM
K-562; K-562
  GI50: 0.144 µM
  TGI K-562: 3.66E−07 Molar
  CC50: 2.06 µM
A-549; A-549
  TGI A-549: 2.59E−06 Molar
  GI50: 1.09 µM
  CC50: 6.16 µM
DU-145; DU-145
  GI50: 0.725 µM
  LC50 (concentration causing 50% net cell kill): 6.97 µM
  TGI DU-145: 2.53E−06 Molar
LNCaP; LN-caP
  GI50: 0.4 µM
  TGI LN-caP: 6.97E−06 Molar
  CC50: 6.97 µM
SK-BR-3; SK-BR-3
  GI50: 0.41 µM
  LC50: 5.94 µM
  TGI SK-BR-3: 1.54E−06 Molar
LoVo-Dox
  GI50: 0.324 µM
  TGI LOVO-DOX: 1.24E−06 Molar
LoVo-Dox; read-out: LC50 LOVO-DOX
  CC50: 4.39 µM
PANC-1; PANC-1
  GI50: 0.453 µM
  TGI PANC-1: 1.71E−06 Molar
  CC50: 5.81 µM
IGROV-ET; IGROV-ET
  GI50: 0.264 µM
  TGI IGROV-ET: 1.00E−06 Molar
  CC50: 6.97 µM
SK-MEL-28; MEL-28
  GI50: 0.25 µM
  TGI MEL-28: 6.31E−07 Molar
  CC50: 2.9 µM
